Patent publication US20090156518A1, “STABLE PHARMACEUTICAL COMPOSITION COMPRISING BETA-LACTAM ANTIBIOTIC AND BUFFER” (priority 2006, published 2009)
Marks after values point to notes of the source that are not given here.

Assay: amounts of β-lactam antibiotic, β-lactamase inhibitor (C18 reverse-phase LC, UV-VIS) and aminoglycoside (HPLC-ELSD) in solution over time
Format: physicochemical
[1] = Example 8: freeze-dried ceftriaxone sodium, tazobactam sodium, gentamicin sulfate, citrate pH 6.75, 2.5% fructose, 7 days 0° C., in 100 mL water, Time 0 h
[2] = Example 8: freeze-dried ceftriaxone sodium, tazobactam sodium, gentamicin sulfate, citrate pH 6.75, 2.5% fructose, 7 days 0° C., in 100 mL water, Time 1 h
[3] = Example 8: freeze-dried ceftriaxone sodium, tazobactam sodium, gentamicin sulfate, citrate pH 6.75, 2.5% fructose, 7 days 0° C., in 100 mL water, Time 2 h
[4] = Example 8: freeze-dried ceftriaxone sodium, tazobactam sodium, gentamicin sulfate, citrate pH 6.75, 2.5% fructose, 7 days 0° C., in 100 mL water, Time 4 h
[5] = Example 8: freeze-dried ceftriaxone sodium, tazobactam sodium, gentamicin sulfate, citrate pH 6.75, 2.5% fructose, 7 days 0° C., in 100 mL water, Time 6 h
[6] = Example 8: freeze-dried ceftriaxone sodium, tazobactam sodium, gentamicin sulfate, citrate pH 6.75, 2.5% fructose, 7 days 0° C., in 100 mL water, Time 8 h
[7] = Example 20: ceftriaxone sodium 2 g, tazobactam sodium 2 g, gentamicin sulfate 160 mg, citrate pH 6.75, 200 mL water, room temperature, Time 0 h
[8] = Example 20: ceftriaxone sodium 2 g, tazobactam sodium 2 g, gentamicin sulfate 160 mg, citrate pH 6.75, 200 mL water, room temperature, Time 1 h
[9] = Example 20: ceftriaxone sodium 2 g, tazobactam sodium 2 g, gentamicin sulfate 160 mg, citrate pH 6.75, 200 mL water, room temperature, Time 2 h
[10] = Example 20: ceftriaxone sodium 2 g, tazobactam sodium 2 g, gentamicin sulfate 160 mg, citrate pH 6.75, 200 mL water, room temperature, Time 4 h
[11] = Example 20: ceftriaxone sodium 2 g, tazobactam sodium 2 g, gentamicin sulfate 160 mg, citrate pH 6.75, 200 mL water, room temperature, Time 6 h
[12] = Example 20: ceftriaxone sodium 2 g, tazobactam sodium 2 g, gentamicin sulfate 160 mg, citrate pH 6.75, 200 mL water, room temperature, Time 8 h

Description: The amounts of β-lactam antibiotics and β-lactamase inhibitor were determined using C18 reverse-phase LC and UV-VIS detector (Tianjin Hemay BioTech Co., Ltd., analysis method No. HM-K-03). The content of aminoglycoside antibiotics was measured using reverse-phase HPLC and evaporation-light-scattering detector (ELSD detector) (Tianjin Hemay BioTech Co., Ltd., analysis method No. HM-K-08). The amount of antibiotic component at each time point was expressed as a percentage with respect to the amount at the initial time (herein defined as 100%). The relative amount of each antibiotic component in the composition at each time point was expressed as peak area ratio with respect to the corresponding peak area of an external standard.

CO/N=C(\C(=O)N[C@@H]1C(=O)N2C(C(=O)O)=C(CSc3nc(=O)c(=O)[nH]n3C)CS[C@H]12)c1csc(N)n1 [Ceftriaxone sodium]
amount of component as percentage with respect to the amount at the initial time (Example 7: ceftriaxone sodium 4 g, sulbactam sodium 1 g, gentamicin sulfate 80 mg, citrate pH 6.75, 200 mL water, room temperature (22° C.), Time 0 h): 97.01%
amount of component as percentage with respect to the amount at the initial time (Example 7: ceftriaxone sodium 4 g, sulbactam sodium 1 g, gentamicin sulfate 80 mg, citrate pH 6.75, 200 mL water, room temperature (22° C.), Time 1 h): 100.3%
amount of component as percentage with respect to the amount at the initial time (Example 7: ceftriaxone sodium 4 g, sulbactam sodium 1 g, gentamicin sulfate 80 mg, citrate pH 6.75, 200 mL water, room temperature (22° C.), Time 2 h): 96.40%
amount of component as percentage with respect to the amount at the initial time (Example 7: ceftriaxone sodium 4 g, sulbactam sodium 1 g, gentamicin sulfate 80 mg, citrate pH 6.75, 200 mL water, room temperature (22° C.), Time 4 h): 99.01%
amount of component as percentage with respect to the amount at the initial time (Example 7: ceftriaxone sodium 4 g, sulbactam sodium 1 g, gentamicin sulfate 80 mg, citrate pH 6.75, 200 mL water, room temperature (22° C.), Time 6 h): 98.91%
amount of component as percentage with respect to the amount at the initial time (Example 7: ceftriaxone sodium 4 g, sulbactam sodium 1 g, gentamicin sulfate 80 mg, citrate pH 6.75, 200 mL water, room temperature (22° C.), Time 8 h): 99.53%
amount of component as percentage with respect to the amount at the initial time [1]: 98.75%
amount of component as percentage with respect to the amount at the initial time [2]: 100.1%
amount of component as percentage with respect to the amount at the initial time [3]: 99.97%
amount of component as percentage with respect to the amount at the initial time [4]: 98.87%
amount of component as percentage with respect to the amount at the initial time [5]: 99.27%
amount of component as percentage with respect to the amount at the initial time [6]: 100.5%
amount of component as percentage with respect to the amount at the initial time (Example 9: freeze-dried ceftriaxone sodium, citrate pH 6.75, 7 days 0° C., in 100 mL 5% fructose solution, Time 0 h): 97.27%
amount of component as percentage with respect to the amount at the initial time (Example 9: freeze-dried ceftriaxone sodium, citrate pH 6.75, 7 days 0° C., in 100 mL 5% fructose solution, Time 1 h): 99.38%
amount of component as percentage with respect to the amount at the initial time (Example 9: freeze-dried ceftriaxone sodium, citrate pH 6.75, 7 days 0° C., in 100 mL 5% fructose solution, Time 2 h): 99.95%
amount of component as percentage with respect to the amount at the initial time (Example 9: freeze-dried ceftriaxone sodium, citrate pH 6.75, 7 days 0° C., in 100 mL 5% fructose solution, Time 4 h): 97.81%
amount of component as percentage with respect to the amount at the initial time (Example 9: freeze-dried ceftriaxone sodium, citrate pH 6.75, 7 days 0° C., in 100 mL 5% fructose solution, Time 6 h): 99.03%
amount of component as percentage with respect to the amount at the initial time (Example 9: freeze-dried ceftriaxone sodium, citrate pH 6.75, 7 days 0° C., in 100 mL 5% fructose solution, Time 8 h): 98.51%
amount of component as percentage with respect to the amount at the initial time (Example 19: ceftriaxone sodium 2 g, sulbactam sodium 2 g, gentamicin sulfate 160 mg, citrate pH 6.75, 200 mL water, room temperature, Time 0 h): 97.01%
amount of component as percentage with respect to the amount at the initial time (Example 19: ceftriaxone sodium 2 g, sulbactam sodium 2 g, gentamicin sulfate 160 mg, citrate pH 6.75, 200 mL water, room temperature, Time 1 h): 100.3%
amount of component as percentage with respect to the amount at the initial time (Example 19: ceftriaxone sodium 2 g, sulbactam sodium 2 g, gentamicin sulfate 160 mg, citrate pH 6.75, 200 mL water, room temperature, Time 2 h): 96.40%
amount of component as percentage with respect to the amount at the initial time (Example 19: ceftriaxone sodium 2 g, sulbactam sodium 2 g, gentamicin sulfate 160 mg, citrate pH 6.75, 200 mL water, room temperature, Time 4 h): 99.01%
amount of component as percentage with respect to the amount at the initial time (Example 19: ceftriaxone sodium 2 g, sulbactam sodium 2 g, gentamicin sulfate 160 mg, citrate pH 6.75, 200 mL water, room temperature, Time 6 h): 98.91%
amount of component as percentage with respect to the amount at the initial time (Example 19: ceftriaxone sodium 2 g, sulbactam sodium 2 g, gentamicin sulfate 160 mg, citrate pH 6.75, 200 mL water, room temperature, Time 8 h): 99.53%
amount of component as percentage with respect to the amount at the initial time [7]: 98.75%
amount of component as percentage with respect to the amount at the initial time [8]: 100.1%
amount of component as percentage with respect to the amount at the initial time [9]: 99.97%
amount of component as percentage with respect to the amount at the initial time [10]: 98.87%
amount of component as percentage with respect to the amount at the initial time [11]: 99.27%
amount of component as percentage with respect to the amount at the initial time [12]: 100.5%

C[C@]1(Cn2ccnn2)[C@H](C(=O)O)N2C(=O)C[C@H]2S1(=O)=O [Tazobactam sodium]
amount of component as percentage with respect to the amount at the initial time [1]: 102.2%
amount of component as percentage with respect to the amount at the initial time [2]: 97.53%
amount of component as percentage with respect to the amount at the initial time [3]: 94.16%
amount of component as percentage with respect to the amount at the initial time [4]: 94.58%
amount of component as percentage with respect to the amount at the initial time [5]: 95.45%
amount of component as percentage with respect to the amount at the initial time [6]: 94.44%
amount of component as percentage with respect to the amount at the initial time (Example 16: 10 mL of the final solution (cefoperazone sodium, tazobactam sodium, etimicin sulfate, citrate) + gentamicin sulfate 16 mg, Time 0 h): 93.36%
amount of component as percentage with respect to the amount at the initial time (Example 16: 10 mL of the final solution (cefoperazone sodium, tazobactam sodium, etimicin sulfate, citrate) + gentamicin sulfate 16 mg, Time 1 h): 104.8%
amount of component as percentage with respect to the amount at the initial time (Example 16: 10 mL of the final solution (cefoperazone sodium, tazobactam sodium, etimicin sulfate, citrate) + gentamicin sulfate 16 mg, Time 2 h): 100.0%
amount of component as percentage with respect to the amount at the initial time (Example 16: 10 mL of the final solution (cefoperazone sodium, tazobactam sodium, etimicin sulfate, citrate) + gentamicin sulfate 16 mg, Time 4 h): 96.58* %
amount of component as percentage with respect to the amount at the initial time (Example 16: 10 mL of the final solution (cefoperazone sodium, tazobactam sodium, etimicin sulfate, citrate) + gentamicin sulfate 16 mg, Time 6 h): 106.1* %
amount of component as percentage with respect to the amount at the initial time (Example 16: 10 mL of the final solution (cefoperazone sodium, tazobactam sodium, etimicin sulfate, citrate) + gentamicin sulfate 16 mg, Time 8 h): 107.1* %
amount of component as percentage with respect to the amount at the initial time (Example 16: freeze-dried cefoperazone sodium 4 g, tazobactam sodium 1 g, citrate pH 6.75, 7 days 0° C., in 100 mL water, 10 mL + etimicin sulfate 20 mg, room temperature, Time 0 h): 98.77%
amount of component as percentage with respect to the amount at the initial time (Example 16: freeze-dried cefoperazone sodium 4 g, tazobactam sodium 1 g, citrate pH 6.75, 7 days 0° C., in 100 mL water, 10 mL + etimicin sulfate 20 mg, room temperature, Time 1 h): 108.2%
amount of component as percentage with respect to the amount at the initial time (Example 16: freeze-dried cefoperazone sodium 4 g, tazobactam sodium 1 g, citrate pH 6.75, 7 days 0° C., in 100 mL water, 10 mL + etimicin sulfate 20 mg, room temperature, Time 2 h): 110.8%
amount of component as percentage with respect to the amount at the initial time (Example 16: freeze-dried cefoperazone sodium 4 g, tazobactam sodium 1 g, citrate pH 6.75, 7 days 0° C., in 100 mL water, 10 mL + etimicin sulfate 20 mg, room temperature, Time 4 h): 97.39%
amount of component as percentage with respect to the amount at the initial time (Example 16: freeze-dried cefoperazone sodium 4 g, tazobactam sodium 1 g, citrate pH 6.75, 7 days 0° C., in 100 mL water, 10 mL + etimicin sulfate 20 mg, room temperature, Time 6 h): 106.3%
amount of component as percentage with respect to the amount at the initial time (Example 16: freeze-dried cefoperazone sodium 4 g, tazobactam sodium 1 g, citrate pH 6.75, 7 days 0° C., in 100 mL water, 10 mL + etimicin sulfate 20 mg, room temperature, Time 8 h): 106.3%
amount of component as percentage with respect to the amount at the initial time [7]: 102.2%
amount of component as percentage with respect to the amount at the initial time [8]: 97.53%
amount of component as percentage with respect to the amount at the initial time [9]: 94.16%
amount of component as percentage with respect to the amount at the initial time [10]: 94.58%
amount of component as percentage with respect to the amount at the initial time [11]: 95.45%
amount of component as percentage with respect to the amount at the initial time [12]: 94.44%
